According to patent US20220096389A1, “PHARMACEUTICAL COMPOSITIONS OF AMORPHOUS SOLID DISPERSIONS AND METHODS OF PREPARATION THEREOF” (Shenzhen Pharmacin Co., Ltd., priority 2020, published 2022):
Like-named read-outs stand apart in the source and are kept apart here. Each block holds one compound with its values, some of them ahead of it.

Tests used:
[1] = cited from earlier work; for Measured or Calculated pKas (first value): first value in cell; for Measured or Calculated pKas (second value): second value in cell
[2] = system: tumor cell lines expressing HER2 and EGFR; conditions: oral administration; cited from earlier work
[3] = system: EGFR and/or HER2 expressing carcinoma cell lines; conditions: in vitro; cited from earlier work
[4] = target: Human Epidermal Growth Factor Receptor 2 (HER2) (Homo sapiens, UniProt P04626); conditions: cited from earlier work
Sequence of Human Epidermal Growth Factor Receptor 2 (HER2) (P04626 23-1255): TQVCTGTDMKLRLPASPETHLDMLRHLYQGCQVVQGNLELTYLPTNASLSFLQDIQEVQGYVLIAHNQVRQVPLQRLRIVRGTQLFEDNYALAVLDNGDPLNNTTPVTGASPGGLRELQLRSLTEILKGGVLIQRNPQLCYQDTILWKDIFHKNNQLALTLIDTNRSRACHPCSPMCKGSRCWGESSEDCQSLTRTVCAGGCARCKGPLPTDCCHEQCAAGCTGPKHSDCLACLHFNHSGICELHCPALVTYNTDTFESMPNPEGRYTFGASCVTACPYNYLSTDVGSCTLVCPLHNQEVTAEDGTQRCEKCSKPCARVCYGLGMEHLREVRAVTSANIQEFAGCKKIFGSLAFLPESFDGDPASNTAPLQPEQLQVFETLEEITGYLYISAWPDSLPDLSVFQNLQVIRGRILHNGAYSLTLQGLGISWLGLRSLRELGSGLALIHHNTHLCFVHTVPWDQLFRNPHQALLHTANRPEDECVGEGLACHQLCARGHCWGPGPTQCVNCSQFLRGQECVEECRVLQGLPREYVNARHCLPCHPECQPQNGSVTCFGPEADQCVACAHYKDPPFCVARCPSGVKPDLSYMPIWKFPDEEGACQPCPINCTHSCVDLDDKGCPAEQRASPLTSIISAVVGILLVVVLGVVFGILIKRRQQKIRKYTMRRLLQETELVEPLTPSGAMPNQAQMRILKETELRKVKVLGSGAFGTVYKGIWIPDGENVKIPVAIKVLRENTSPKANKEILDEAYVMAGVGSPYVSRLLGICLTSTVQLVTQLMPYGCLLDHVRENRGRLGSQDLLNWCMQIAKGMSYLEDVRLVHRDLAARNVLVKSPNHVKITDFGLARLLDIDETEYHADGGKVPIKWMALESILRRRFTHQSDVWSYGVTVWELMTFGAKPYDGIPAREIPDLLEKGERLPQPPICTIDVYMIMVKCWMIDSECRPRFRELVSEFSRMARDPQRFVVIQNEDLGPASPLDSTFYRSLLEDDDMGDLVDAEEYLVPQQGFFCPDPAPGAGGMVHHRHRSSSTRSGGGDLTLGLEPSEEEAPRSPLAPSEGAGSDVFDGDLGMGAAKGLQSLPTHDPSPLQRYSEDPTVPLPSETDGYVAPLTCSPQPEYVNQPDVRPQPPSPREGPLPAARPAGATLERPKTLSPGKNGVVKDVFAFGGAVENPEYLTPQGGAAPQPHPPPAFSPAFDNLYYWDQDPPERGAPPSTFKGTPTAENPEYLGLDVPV

[5] = system: EGFR and HER2 autophosphorylation, downstream MAPK and AKT signaling pathways; conditions: in vitro; cited from earlier work
HER4 = HER4 (Homo sapiens, UniProt Q15303); conditions: cited from earlier work
Sequence of HER4 (Q15303 26-1308): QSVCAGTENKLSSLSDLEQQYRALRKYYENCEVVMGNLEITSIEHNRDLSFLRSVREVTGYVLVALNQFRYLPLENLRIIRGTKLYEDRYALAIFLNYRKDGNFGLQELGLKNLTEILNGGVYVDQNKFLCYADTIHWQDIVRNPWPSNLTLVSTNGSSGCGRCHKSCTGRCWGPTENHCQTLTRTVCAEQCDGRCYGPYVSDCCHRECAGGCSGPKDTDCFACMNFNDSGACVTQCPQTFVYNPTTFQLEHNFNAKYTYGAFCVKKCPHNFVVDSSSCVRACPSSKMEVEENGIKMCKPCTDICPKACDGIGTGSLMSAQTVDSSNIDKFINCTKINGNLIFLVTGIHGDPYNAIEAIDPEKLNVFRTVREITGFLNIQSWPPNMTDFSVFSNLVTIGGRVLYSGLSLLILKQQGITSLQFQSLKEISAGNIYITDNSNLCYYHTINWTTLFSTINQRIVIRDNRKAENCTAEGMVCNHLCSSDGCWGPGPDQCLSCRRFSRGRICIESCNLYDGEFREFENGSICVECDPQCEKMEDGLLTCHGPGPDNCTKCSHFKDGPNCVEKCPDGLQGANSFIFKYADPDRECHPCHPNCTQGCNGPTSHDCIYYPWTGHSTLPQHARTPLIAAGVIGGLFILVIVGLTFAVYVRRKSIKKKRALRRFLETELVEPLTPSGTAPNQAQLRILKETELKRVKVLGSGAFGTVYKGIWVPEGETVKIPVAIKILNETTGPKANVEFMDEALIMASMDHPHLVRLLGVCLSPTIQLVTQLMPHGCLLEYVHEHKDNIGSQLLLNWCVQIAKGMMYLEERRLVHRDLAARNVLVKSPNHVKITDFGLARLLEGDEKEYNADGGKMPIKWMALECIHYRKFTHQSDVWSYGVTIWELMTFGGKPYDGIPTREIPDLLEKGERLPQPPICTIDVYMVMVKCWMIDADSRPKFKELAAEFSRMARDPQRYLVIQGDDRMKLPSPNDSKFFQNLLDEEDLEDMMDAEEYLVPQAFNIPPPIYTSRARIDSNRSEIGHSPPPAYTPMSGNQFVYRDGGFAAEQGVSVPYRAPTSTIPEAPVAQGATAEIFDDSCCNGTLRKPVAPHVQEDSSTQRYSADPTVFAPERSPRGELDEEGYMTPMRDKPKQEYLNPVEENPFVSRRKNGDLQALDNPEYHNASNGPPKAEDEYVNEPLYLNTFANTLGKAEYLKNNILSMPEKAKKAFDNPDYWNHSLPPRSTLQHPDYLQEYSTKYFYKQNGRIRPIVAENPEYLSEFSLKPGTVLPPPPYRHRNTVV

[6] = Kinetic solubility profiles of palbociclib ASD powders; assay type: physicochemical; conditions: aqueous buffer, thermodynamic from solid; pH 6.5 phosphate buffer, 37 C
[7] = cited from earlier work

Compound: Cc1cc(C)nc(NS(=O)(=O)c2ccc(N)cc2)n1 [Sulfamethazine]
Measured or Calculated pKas (first value) [1]: 2.28
Measured or Calculated pKas (second value) [1]: 7.42

Compound: CCn1cc(C(=O)O)c(=O)c2cc(F)c(N3CCNCC3)nc21 [Enoxacin]
Measured or Calculated pKas (first value) [1]: 5.05 ± 0.08
Measured or Calculated pKas (second value) [1]: 6.25 ± 0.05

Compound: CC1(C)S[C@@H]2[C@H](NC(=O)[C@H](N)c3ccc(O)cc3)C(=O)N2[C@H]1C(=O)O [Amoxicillin]
Measured or Calculated pKas (first value) [1]: 3.39
Measured or Calculated pKas (second value) [1]: 6.71

Compound: Nc1ccc(S(=O)(=O)Nc2nccs2)cc1 [Sulfathiazole]
Measured or Calculated pKas (first value) [1]: 2.08
Measured or Calculated pKas (second value) [1]: 7.07

Compound: Cc1ccnc(NS(=O)(=O)c2ccc(N)cc2)n1 [Sulfamerazine]
Measured or Calculated pKas (first value) [1]: 2.17
Measured or Calculated pKas (second value) [1]: 6.77

Compound: COc1cc(Cc2cnc(N)nc2N)cc(OC)c1OC [Trimethoprim]
Measured or Calculated pKas (first value) [1]: 3.23 ± 0.30
Measured or Calculated pKas (second value) [1]: 6.76 ± 0.12

Compound: C[C@H]1c2cccc(O)c2C(=O)C2=C(O)[C@]3(O)C(=O)C(C(N)=O)=C(O)[C@@H](N(C)C)[C@@H]3[C@@H](O)[C@@H]21 [Doxycycline]
Measured or Calculated pKas (first value) [1]: 3.02 ± 0.30
Measured or Calculated pKas (second value) [1]: 7.97 ± 0.15

Compound: O=C(O)CCC(=O)c1ccc(-c2ccccc2)cc1 [Fenbufen]
Measured or Calculated pKas (first value) [1]: 4.56

Compound: CC[C@H]1OC(=O)C[C@@H](O)[C@H](C)[C@@H](O[C@@H]2O[C@H](C)[C@@H](O[C@H]3C[C@@](C)(O)[C@@H](O)[C@H](C)O3)[C@H](N(C)C)[C@H]2O)[C@@H](CC=O)C[C@@H](C)C(=O)/C=C/C(C)=C/[C@@H]1CO[C@@H]1O[C@H](C)[C@@H](O)[C@@H](OC)[C@H]1OC [Tylosin]
Measured or Calculated pKas (first value) [1]: 3.31 ± 0.30
Measured or Calculated pKas (second value) [1]: 7.50 ± 0.13

Compound: CC[C@H]1OC(=O)[C@H](C)[C@@H](O[C@H]2C[C@@](C)(OC)[C@@H](O)[C@H](C)O2)[C@H](C)[C@@H](O[C@@H]2O[C@H](C)C[C@H](N(C)C)[C@H]2O)[C@](C)(OC)C[C@@H](C)C(=O)[C@H](C)[C@@H](O)[C@]1(C)O [Clarithromycin]
Measured or Calculated pKas (first value) [1]: 7.25

Compound: CC[C@H]1OC(=O)[C@H](C)[C@@H](O[C@H]2C[C@@](C)(OC)[C@@H](O)[C@H](C)O2)[C@H](C)[C@@H](O[C@@H]2O[C@H](C)C[C@H](N(C)C)[C@H]2O)[C@](C)(O)C[C@@H](C)CN(C)[C@H](C)[C@@H](O)[C@]1(C)O [Azithromycin]
Measured or Calculated pKas (first value) [1]: 7.34

Compound: CN1CCN(c2c(F)cc3c(=O)c(C(=O)O)cn(CCF)c3c2F)CC1 [Fleroxacin]
Measured or Calculated pKas (first value) [1]: 5.46
Measured or Calculated pKas (second value) [1]: 8.00

Compound: CC(=O)NS(=O)(=O)c1ccc(N)cc1 [Sulfacetamide]
Measured or Calculated pKas (first value) [1]: 1.95 ± 0.11
Measured or Calculated pKas (second value) [1]: 5.30 ± 0.05

Compound: Nc1ccc(S(=O)(=O)Nc2ncccn2)cc1 [Sulfadiazine]
Measured or Calculated pKas (first value) [1]: 2.10
Measured or Calculated pKas (second value) [1]: 6.28

Compound: C#Cc1cccc(Nc2ncnc3cc(OCCOC)c(OCCOC)cc23)c1 [Erlotinib]
Measured or Calculated pKas (first value) [1]: 5.4

Compound: CC(C(=O)O)c1ccc2c(c1)[nH]c1ccc(Cl)cc12 (stereo not drawn) [Carprofen]
Measured or Calculated pKas (first value) [1]: 4.63

Compound: Nc1ccc(S(=O)(=O)Nc2ccc(Cl)nn2)cc1 [Sulfachloropyridazine]
Measured or Calculated pKas (first value) [1]: 1.87 ± 0.30
Measured or Calculated pKas (second value) [1]: 5.45 ± 0.06

Compound: CN1CCN(c2c(F)cc3c(=O)c(C(=O)O)cn4c3c2OCN4C)CC1 [Marbofloxacin]
Measured or Calculated pKas (first value) [1]: 5.69 ± 0.10
Measured or Calculated pKas (second value) [1]: 8.02 ± 0.20

Compound: CC1COc2c(N3CCN(C)CC3)c(F)cc3c(=O)c(C(=O)O)cn1c23 (stereo not drawn) [Ofloxacin]
Measured or Calculated pKas (first value) [1]: 6.22 ± 0.05
Measured or Calculated pKas (second value) [1]: 7.81 ± 0.08

Compound: O=C(O)Cc1ccccc1Nc1c(Cl)cccc1Cl [Diclofenac]
Measured or Calculated pKas (first value) [1]: 4.16

Compound: [H]/N=C(/N)NS(=O)(=O)c1ccc(N)cc1 [Sulfaguanidine]
Measured or Calculated pKas (first value) [1]: 1.55
Measured or Calculated pKas (second value) [1]: 11.24

Compound: CCC(C(=O)O)c1ccc(CC(C)C)cc1 (stereo not drawn) [Butibufen]
Measured or Calculated pKas (first value) [1]: 4.64

Compound: CC(C)Cc1ccc(C(C)C(=O)O)cc1 (stereo not drawn) [Ibuprofen]
Measured or Calculated pKas (first value) [1]: 4.51

Compound: CC(C)NCC(O)COc1cccc2ccccc12 (stereo not drawn) [Propranolol]
Measured or Calculated pKas (first value) [1]: 9.49 ± 0.2

Compound: CC(CCc1ccccc1)NCC(O)c1ccc(O)c(C(N)=O)c1 (stereo not drawn) [Labetalol]
Measured or Calculated pKas (first value) [1]: 7.35

Compound: C=CCOc1ccccc1OCC(O)CNC(C)C (stereo not drawn) [Oxprenolol]
Measured or Calculated pKas (first value) [1]: 9.62

Compound: CCN1CCN(c2cc3c(cc2F)c(=O)c(C(=O)O)cn3C2CC2)CC1 [Enrofloxacin]
Measured or Calculated pKas (first value) [1]: 5.88 ± 0.03
Measured or Calculated pKas (second value) [1]: 7.74 ± 0.03

Compound: O=C(O)c1cn(-c2ccc(F)cc2)c2cc(N3CCNCC3)c(F)cc2c1=O [Sarafloxacin]
Measured or Calculated pKas (first value) [1]: 5.62 ± 0.08
Measured or Calculated pKas (second value) [1]: 8.18 ± 0.09

Compound: COc1ccc2[nH]c([S+]([O-])Cc3ncc(C)c(OC)c3C)nc2c1 (stereo not drawn) [Omeprazole]
Measured or Calculated pKas (first value) [1]: 4.14
Measured or Calculated pKas (second value) [1]: 8.90

Compound: CN1C[C@@H]2C[C@H]1CN2c1cc2c(cc1F)c(=O)c(C(=O)O)cn2C1CC1 [Danofloxacin]
Measured or Calculated pKas (first value) [1]: 6.07 ± 0.06
Measured or Calculated pKas (second value) [1]: 8.56 ± 0.07

Compound: CN(C)[C@@H]1C(O)=C(C(N)=O)C(=O)[C@@]2(O)C(O)=C3C(=O)c4c(O)ccc(Cl)c4[C@@H](O)[C@H]3C[C@@H]12 [Demeclocycline]
Measured or Calculated pKas (first value) [1]: 3.37 ± 0.30
Measured or Calculated pKas (second value) [1]: 7.36 ± 0.03

Compound: CN1CCN(c2cc3c(cc2F)c(=O)c(C(=O)O)cn3-c2ccc(F)cc2)CC1 [Difloxacin]
Measured or Calculated pKas (first value) [1]: 5.66 ± 0.04
Measured or Calculated pKas (second value) [1]: 7.24 ± 0.06

Compound: CCOc1cc2ncc(C#N)c(Nc3ccc(OCc4ccccn4)c(Cl)c3)c2cc1NC(=O)/C=C/CN(C)C [Neratinib]
tumor growth in mouse xenograft models [2]: inhibited tumor growth
antitumor activity in carcinoma cell lines [3]: antitumor activity
binding to HER2 [4]: irreversibly binds
EGFR and HER2 autophosphorylation, downstream MAPK and AKT signaling [5]: reduces
binding to HER4 (HER4): irreversibly binds

Compound: CN(C)[C@@H]1C(O)=C(C(N)=O)C(=O)[C@@]2(O)C(O)=C3C(=O)c4c(O)ccc(Cl)c4[C@@](C)(O)[C@H]3C[C@@H]12 [Chlortetracycline]
Measured or Calculated pKas (first value) [1]: 3.33 ± 0.30
Measured or Calculated pKas (second value) [1]: 7.55 ± 0.02

Compound: C=C1c2c(Cl)ccc(O)c2C(=O)C2=C(O)[C@]3(O)C(=O)C(C(N)=O)=C(O)[C@@H](N(C)C)[C@@H]3[C@@H](O)[C@H]12 [Meclocycline]
Measured or Calculated pKas (first value) [1]: 4.05 ± 0.30
Measured or Calculated pKas (second value) [1]: 6.87 ± 0.39

Compound: CN(C)[C@@H]1C(O)=C(C(N)=O)C(=O)[C@@]2(O)C(O)=C3C(=O)c4c(O)cccc4[C@@](C)(O)[C@H]3[C@H](O)[C@@H]12 [Oxytetracycline]
Measured or Calculated pKas (first value) [1]: 3.04
Measured or Calculated pKas (second value) [1]: 8.00

Compound: CCN(CC)CCOC(=O)c1ccc(N)cc1 [Procaine]
Measured or Calculated pKas (first value) [1]: 2.28 ± 0.08
Measured or Calculated pKas (second value) [1]: 9.02 ± 0.01

Compound: CC(=O)Nc1ccc(OCC(O)CNC(C)C)cc1 (stereo not drawn) [Practolol]
Measured or Calculated pKas (first value) [1]: 9.41

Compound: CC(C)(C)NC[C@H](O)COc1nsnc1N1CCOCC1 [Timolol]
Measured or Calculated pKas (first value) [1]: 9.34

Compound: CC[C@H]1OC(=O)[C@H](C)[C@@H](O[C@H]2C[C@@](C)(OC)[C@@H](O)[C@H](C)O2)[C@H](C)[C@@H](O[C@@H]2O[C@H](C)C[C@H](N(C)C)[C@H]2O)[C@](C)(O)C[C@@H](C)/C(=N\OCOCCOC)[C@H](C)[C@@H](O)[C@]1(C)O [Roxithromycin]
Measured or Calculated pKas (first value) [1]: 9.17 ± 0.30

Compound: CC(C(=O)O)c1ccc(-c2ccccc2)c(F)c1 (stereo not drawn) [Flurbiprofen]
Measured or Calculated pKas (first value) [1]: 4.35

Compound: CCn1cc(C(=O)O)c(=O)c2cnc(N3CCNCC3)nc21 [Pipemidic acid]
Measured or Calculated pKas (first value) [1]: 5.42 ± 0.05
Measured or Calculated pKas (second value) [1]: 8.18 ± 0.09

Compound: COc1cc2ncnc(Nc3ccc(F)c(Cl)c3)c2cc1OCCCN1CCOCC1 [Gefitinib]
Measured or Calculated pKas (first value) [1]: 7.2

Compound: Cc1nnc(NS(=O)(=O)c2ccc(N)cc2)s1 [Sulfamethizole]
Measured or Calculated pKas (first value) [1]: 1.86 ± 0.30
Measured or Calculated pKas (second value) [1]: 5.29 ± 0.04

solubility [6]: < 10 µg/mL
Compound: CC(=O)c1c(C)c2cnc(Nc3ccc(N4CCNCC4)cn3)nc2n(C2CCCC2)c1=O [Palbociclib, 6-acetyl-8-cyclopentyl-5-methyl-2-[(5-piperazin-1-ylpyridin-2-yl)amino]pyrido[2,3-d]pyrimidin-7-one]
solubility ([7]; pH value below 4): high
solubility ([7]; pH value higher than 4): less than 0.02 mg/ml
